Measured values reported in US20260098053A1, “COMPOSITIONS AND METHODS FOR TREATING CNS DISORDERS” (SAGE THERAPEUTICS, INC., priority 2019, published 2026).
pIC50: −log10 of the molar value.

target: [35S]-TBPS binding, rat brain cortical membranes; assay: Steroid inhibition of [35S]-TBPS binding; conditions: Table 4, 3 nM [35S]-TBPS, in the presence of 5 mM GABA, read-out: TBPS IC50
Description: [35S]-t-Butylbicyclophosphorothionate (TBPS) binding assays using rat brain cortical membranes in the presence of 5 mM GABA has been described (Gee et al, J. Pharmacol. Exp. Ther. 1987, 241, 346-353; Hawkinson et al, Mol. Pharmacol. 1994, 46, 977-985; Lewin, A. H et al., Mol. Pharmacol. 1989, 35, 189-194).
Briefly, cortices are rapidly removed following decapitation of carbon dioxide-anesthetized Sprague-Dawley rats (200-250 g). The cortices are homogenized in 10 volumes of ice-cold 0.32 M sucrose using a glass/teflon homogenizer and centrifuged at 1500×g for 10 min at 4° C. The resultant supernatants are centrifuged at 10,000×g for 20 min at 4° C. to obtain the P2 pellets. The P2 pellets are resuspended in 200 mM NaCl/50 mM Na—K phosphate pH 7.4 buffer and centrifuged at 10,000×g for 10 min at 4° C. This washing procedure is repeated twice and the pellets are resuspended in 10 volumes of buffer. Aliquots ([…]) of the membrane suspensions are incubated with 3 nM [^35S]-TBPS and […] aliquots of test drug dissolved in dimethyl sulfoxide (DMSO) (final 0.5%) in the presence of 5 mM GABA. The incubation is brought to a final volume of 1.0 mL with buffer. Nonspecific binding is determined in the presence of […] and ranged from 15 to 25%. Following a 90 min incubation at room temp, the assays are terminated by filtration through glass fiber filters (Schleicher and Schuell No. 32) using a cell harvester (Brandel) and rinsed three times with ice-cold buffer. Filter bound radioactivity is measured by liquid scintillation spectrometry. Non-linear curve fitting of the overall data for each drug averaged for each concentration is done using Prism (GraphPad). […] The concentration of test compound producing 50% inhibition (IC50) of specific binding and the maximal extent of inhibition (Imax) are determined for the individual experiments with the same model used for the overall data and then the means±SEM.s of the individual experiments are calculated.
Various compounds are or can be screened to determine their potential as modulators of [^35S]-TBPS binding in vitro. These assays are or can be performed in accordance with the above

Row | SMILES | pIC50
1 | CC[C@]12CC[C@H]3[C@@H](CC[C@@H]4CC[C@@](O)(COC)CC[C@@H]43)[C@@H]1CC[C@@H]2C(=O)Cn1cc(C#N)cn1 [Example 31, 1-(2-((1S,3aS,3bR,5aR,8S,10aS,10bR,12aS)-12a-ethyl-8-hydroxy-8-(methoxymethyl)octadecahydrocyclohepta[a]cyclopenta[f]naphthalen-1-yl)-2-oxoethyl)-1H-pyrazole-4-carbonitrile] | 6.00 to 7.00
2 | CC[C@]12CC[C@@](C)(O)C[C@H]1CC[C@H]1[C@@H]3CCC[C@H](C(=O)Cn4cc(C#N)cn4)[C@@]3(C)CC[C@@H]12 [Example 19, 1-(2-((1S,4aS,4bS,6aR,8R,10aS,10bS,12aS)-10a-ethyl-8-hydroxy-8,12a-dimethyloctadecahydrochrysen-1-yl)-2-oxoethyl)-1H-pyrazole-4-carbonitrile] | > 7.00
3 | CC[C@]12CC[C@H]3[C@@H](CC[C@@H]4C[C@](C)(O)CC[C@@H]43)[C@@H]1CCC[C@@H]2C(=O)Cn1cc(C#N)cn1 [Example 28, 1-(2-((1S,4aS,4bR,6aR,8R,10aS,10bR,12aS)-12a-ethyl-8-hydroxy-8-methyloctadecahydrochrysen-1-yl)-2-oxoethyl)-1H-pyrazole-4-carbonitrile] | > 7.00
4 | CC[C@]12CC[C@@](C)(O)CC[C@H]1CC[C@H]1[C@@H]3CC[C@H](C(=O)Cn4cc(C#N)cn4)[C@@]3(C)CC[C@@H]12 [Example 26] | 6.00 to 7.00
5 | CC(=O)[C@H]1CCC[C@H]2[C@@H]3CC=C4CC[C@](C)(O)CC[C@]4(C)[C@H]3CC[C@]12C [Example 57, 1-((1S,4aS,4bS,9S,11aR,11bS,13aS)-9-hydroxy-9,11a,13a-trimethyl-2,3,4,4a,4b,5,7,8,9,10,11,11a,11b,12,13,13a-hexadecahydro-1H-cyclohepta[a]phenanthren-1-yl)ethanone] | > 7.00
6 | C[C@]1(O)CCC2=CC[C@H]3[C@@H]4CCC[C@H](C(=O)Cn5cc(C#N)cn5)[C@@]4(C)CC[C@@H]3[C@@]2(C)CC1 [Example 58, 1-(2-((1S,4aS,4bS,9S,11aR,11bS,13aS)-9-hydroxy-9,11a,13a-trimethyl-2,3,4,4a,4b,5,7,8,9,10,11,11a,11b,12,13,13a-hexadecahydro-1H-cyclohepta[a]phenanthren-1-yl)-2-oxoethyl)-1H-pyrazole-4-carbonitrile] | > 7.00
7 | Cc1nnn(CC(=O)[C@H]2CCC[C@H]3[C@@H]4CC[C@@H]5C[C@](C)(O)CCC[C@@H]5[C@H]4CC[C@]23C)n1 [Example 11, 1-((1S,4aS,4bR,6aR,8R,11aS,11bR,13aS)-8-hydroxy-8,13a-dimethyloctadecahydro-1H-cyclohepta[a]phenanthren-1-yl)-2-(5-methyl-2H-tetrazol-2-yl)ethan-1-one] | > 7.00
8 | C[C@]1(O)CC[C@H]2CC[C@@H]3[C@H](CC[C@]4(C)[C@H](C(=O)Cn5cc(C#N)cn5)CCC[C@@H]34)[C@H]2CC1 [Example 3] | < 6.00
9 | CC[C@]1(O)CC[C@H]2CC[C@@H]3[C@H](CC[C@]4(C)[C@@H](C(C)=O)CCC[C@@H]34)[C@H]2CC1 [Example 49, 1-((1S,4aS,4bR,6aR,9S,11aS,11bR,13aS)-9-ethyl-9-hydroxy-13a-methyloctadecahydro-1H-cyclohepta[a]phenanthren-1-yl)ethanone] | < 6.00
10 | CC[C@@]1(O)CCC[C@@]2(C)[C@H](CC[C@@H]3[C@@H]2CC[C@]2(C)[C@@H](C(=O)Cn4cc(C#N)cn4)CCC[C@@H]32)C1 [Example 38, 1-(2-((1S,4aS,4bR,6aR,8R,11aS,11bS,13aS)-8-ethyl-8-hydroxy-11a,13a-dimethyloctadecahydro-1H-cyclohepta[a]phenanthren-1-yl)-2-oxoethyl)-1H-pyrazole-4-carbonitrile] | 6.00 to 7.00
11 | CC[C@]12CC[C@H]3[C@@H](CC[C@@H]4C[C@](C)(O)CCC[C@@]43C)[C@@H]1CC[C@@H]2C(=O)Cn1cc(C#N)cn1 [Example 30, 1-(2-((1S,3aS,3bR,5aR,7R,10aS,10bS,12aS)-12a-ethyl-7-hydroxy-7,10a-dimethyloctadecahydrocyclohepta[a]cyclopenta[f]naphthalen-1-yl)-2-oxoethyl)-1H-pyrazole-4-carbonitrile] | > 7.00
12 | CC(=O)[C@H]1CCC[C@H]2[C@@H]3CC[C@@H]4C[C@](C)(O)CCC[C@@H]4[C@H]3CC[C@]12C [Example 9, 1-((1S,4aS,4bR,6aR,8R,11aS,11bR,13aS)-8-hydroxy-8,13a-dimethyloctadecahydro-1H-cyclohepta[a]phenanthren-1-yl)ethan-1-one] | > 7.00
13 | C[C@@]1(O)CCC[C@@]2(C)[C@H](CC[C@@H]3[C@@H]2CC[C@]2(C)[C@@H](C(=O)Cn4cc(C#N)cn4)CCCC[C@@H]32)C1 [Example 60] | > 7.00
14 | C[C@]1(O)CC[C@H]2CC[C@@H]3[C@H](CC[C@]4(C)[C@@H](C(=O)CCn5cc(C#N)cn5)CCC[C@@H]34)[C@H]2CC1 [Example 51, 1-(3-((1S,4aS,4bR,6aR,9S,11aS,11bR,13aS)-9-hydroxy-9,13a-dimethyloctadecahydro-1H-cyclohepta[a]phenanthren-1-yl)-3-oxopropyl)-1H-pyrazole-4-carbonitrile] | 6.00 to 7.00
15 | CC(=O)[C@H]1CCCC[C@H]2[C@@H]3CC[C@@H]4C[C@](C)(O)CCC[C@]4(C)[C@H]3CC[C@]12C [Example 59, 1-((1S,5aS,5bR,7aR,9R,12aS,12bS,14aS)-9-hydroxy-9,12a,14a-trimethylicosahydrodicyclohepta[a,f]naphthalen-1-yl)ethanone] | 6.00 to 7.00

same assay, conditions: Table 5, 3 nM [35S]-TBPS, in the presence of 5 mM GABA, read-out: TBPS IC50

Row | SMILES | pIC50
16 | Cc1nnnn1CC(=O)[C@H]1CC[C@H]2[C@@H]3CC[C@@H]4C[C@](C)(O)CC[C@@H]4[C@H]3CC[C@@H]21 [Example 70, 1-((3R,5R,8R,9R,10S,13S,14S,17S)-3-hydroxy-3-methylhexadecahydro-1H-cyclopenta[a]phenanthren-17-yl)-2-(5-methyl-1H-tetrazol-1-yl)ethan-1-one] | > 7.00
17 | CC(=O)[C@H]1CCC[C@H]2[C@@H]3CC[C@H]4C[C@](C)(O)CC[C@@H]4[C@H]3CC[C@@H]21 [Example 79, 1-((1S,4aS,4bR,6aS,8R,10aS,10bR,12aS)-8-hydroxy-8-methyloctadecahydrochrysen-1-yl)-ethanone] | 6.00 to 7.00
18 | C[C@@]1(O)CC[C@H]2[C@H](CC[C@@H]3[C@@H]2CC[C@H]2[C@H]3CC[C@@H]2C(=O)Cn2cc(C#N)cn2)C1 [Example 68, 1-(2-((3R,5R,8R,9R,10S,13S,14S,17S)-3-hydroxy-3-methylhexadecahydro-1H-cyclopenta[a]phenanthren-17-yl)-2-oxoethyl)-1H-pyrazole-4-carbonitrile] | > 7.00

same assay, conditions: Table 6, 3 nM [35S]-TBPS, in the presence of 5 mM GABA, read-out: IC50

Row | SMILES | pIC50
19 | CC[C@]12CC[C@H]3[C@@H](CC[C@@H]4C[C@](C)(O)CC[C@@]43C3CC3)[C@@H]1CC[C@@H]2C(=O)Cn1ccc(C#N)n1 [Example 90, 1-(2-((3R,5R,8S,9S,10R,13S,14S,17S)-10-cyclopropyl-13-ethyl-3-hydroxy-3-methylhexadecahydro-1H-cyclopenta[a]phenanthren-17-yl)-2-oxoethyl)-1H-pyrazole-3-carbonitrile] | > 7.00
